In assay [1] the test system is Dahl salt-sensitive rats on high salt diet. The assay can be described thus: Effects on mortality in salt sensitive rat model (Experiment 1). Type of assay: in vivo. From the text:
Effect of levosimendan on early stage mortality of Dahl salt-sensitive rats was studied. Dahl salt-sensitive rats on high salt diet develop hypertension and increased mortality. In the early stages of hypertension the incidence of death is almost entirely due to stroke and sudden death. See Qu, P. et al., Hypertens. Res., 2000; 23:613-623.
6-week-old male Dahl salt-sensitive rats (SS/JrHsd) received the following diet and drug regimens for 7 weeks: 1) Dahl SS controls on high salt diet, 2) Dahl SS rats on high salt diet+high-dose levosimendan (10 mg/l of levosimendan in drinking water), 3) Dahl SS rats on high salt diet+low-dose levosimendan (1 mg/l of levosimendan in drinking water) and 4) Dahl SS controls on low salt diet. High salt diet was produced by adding NaCl to commercial low salt diet.
Only 38% (9/24) of rats on high salt diet survived the 7-week follow up period.

For assay [2], the system named is Dahl SS rats on high-salt diet. The experiment in a line: Functional observational battery (FOB), Dahl salt-sensitive rat stroke model. Type of assay: in vivo. The settings on record: weeks 1-8, levosimendan 1 mg/kg/day. How it is done: (§1) Dahl SS rats were divided into three treatment groups: High-Salt diet+vehicle (n=20), High-Salt diet+Levosimendan 1 mg/kg/day (n=20), and Normal-Salt diet control (n=4). High salt diet contained 7% of NaCl in commercial low salt diet. Feeding with the high-salt diet was started at the age of 6 weeks and continued 7 weeks until the end of the study. Levosimendan was administered via drinking water (2 mg/l of levosimendan in drinking water). The administration was started at the same time as the high-salt diet and continued until the end of the study. The consumption of drinking water and food as well as the body weight and general health of the animals were monitored. MRI was performed once-a-week during the weeks 2-8. FOB and 7-point Neuroscore testing were performed once-a-week during the weeks 1-3 and twice-a-week during weeks the 4-8.
Functional observational battery (FOB) and Neuroscore testing were performed once-a-week during weeks 1-3 and twice-a-week during weeks 4-8.
All rats were observed using standardized procedures. The procedures included observation of rats in the home cage, while moving in open arena and through manipulative tests. The measures included:
(1) Home-Cage Measurements:
Body position, Respiration, Vocalization and Palpebral closure.
(2) Hand-Held Observations: […]

A further assay relates to Kininogen. The assay can be described thus: Effect on kininogen expression in rat heart (2-DE gels, silver staining, MALDI-TOF). The settings on record: levosimendan orally 20 mg/l in tab water for eight days. It is filed as in vivo, Rattus novergicus. How it is done: Rats were given levosimendan orally 20 mg/l in tab water and controls only tab water for eight days. Hearts were frozen in liquid nitrogen and stored at −80° C. The heart tissues were lyophilized on ice over night and incubated in lysis buffer; 9 M urea, 20 mM Tris-HCl pH 7.4, 50 mM KCl, 3 mM EDTA pH 7.5, 0.5% IPG buffer 3-10 NL, 5 mM PMSF, 1% DTT and Benzoase 100 Units for 10 min at room temperature. The protein solution was then sonicated 2×15 s and centrifuged at 14000 rpm for 5 min. The supernatants were collected and the protein amount measured based on the protein assay kit from BioRad. 40 μg protein solution was diluted in 350 μl of rehydration buffer; 7 M urea, 2 M thiourea, 2 mM TBP, 0.5% IPG buffer 3-10 NL, 4% CHAPS and 0.2% BFB, incubated for 30 min at room temperature and centrifuged for 5 min at 14000 rpm. […]
The focused strips were equilibrated in the following buffer: 6 M urea, 50 mM Tris-HCl, pH 8.8, 2% SDS, 30% glycerol, 2% DTT, 2.5% iodoacetamide and 0.2% BFB 2×10 min at room temperature. […] The silver stained gels were analyzed by PD-QUEST(6.2) 2-DE software (BIO-RAD). […]
All samples were prepared by reversed phase pipette tips C18 (ZipTip, Millipore). […] The samples were analyzed in a TOF mass spectrometer (Voyager-DE PRO). […] The masses of the obtained peptides were analysed by the MS-fit program on the Expasy Molecular Biology server PeptIdent.

Assay [3] has as its system Dahl SS rats on high-salt diet. The experiment in a line: Ex vivo MRI of post-mortem brain, Dahl salt-sensitive rat stroke model. It is filed as in vivo. The protocol: as §1
For ex-vivo imaging post-mortem brain was removed from the skull and immersed into 4% formalin for 48 h and thereafter stored in 0.1 M PBS. The brain was embedded in perfluoropolyether and MRI was performed in 9.4 T magnet (Oxford) interfaced to a SMIS-console. The interpretation of hyperintensity and signal void areas follows that presented for in vivo studies. In ex vivo studies only mature lesions with significant oedema and destructed tissue structure can be detected. Initial T2 contrast, which may be detectable in vivo, may not be visible in ex vivo studies. The findings in ex vivo studies support the idea that most of the ischemic lesions were associated with hemorrhage. […] Abbreviations: LS, levosimendan.

Experimental findings from patent US8329693B2, “Method for the prevention of thromboembolic disorders” (Orion Corporation, priority 2004, dated 2012) are described below.

For the molecule `CC1CC(=O)NN=C1c1ccc(NN=C(C#N)C#N)cc1` (single isomer, unassigned; (-)) [levosimendan, (−)-enantiomer of [[4-(1,4,5,6-tetrahydro-4-methyl-6-oxo-3-pyridazinyl)phenyl]hydrazono]propanedinitrile], the “early stage mortality of salt-sensitive rats” value in assay [1] (7 weeks, levosimendan in drinking water) is “markedly reduced”. Also, the “rats that died during the 7-week follow up period” value in assay [1] (high-dose levosimendan, 10 mg/l in drinking water) is reported as “three out of 12”; in assay [1] (low-dose levosimendan, 1 mg/l in drinking water, n=12) it was “None”. The “stroke-associated behavioural deficits observed in FOB testing” value in assay [2] was “markedly reduce and postpone”. Besides, the “kininogen protein expression in rat heart versus control” value in the assay on Kininogen is recorded as “ten fold up-regulated”. Moreover, the “Incidence of T2 changes, class 0” value in assay [3] (class 0, levosimendan 1 mg/kg/day) amounted to 80%. For the same molecule, in assay [3] (class 1-50, levosimendan 1 mg/kg/day), the “Incidence of T2 changes, class 1-50” value stood at 20%. In addition, in assay [3] (class 51-100, levosimendan 1 mg/kg/day), the “Incidence of T2 changes, class 51-100” value was 0%. Also, the “Incidence of T2 changes, class >200” value in assay [3] (class >200, levosimendan 1 mg/kg/day) came out at 0%.
